Measured values from PubChem BioAssay (NCI).
Where “and” joins values, the source holds several entries; their conditions need not be identical. Identical values can stand only once.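 Method: 48-hour compound exposure of cells in 96-well plates, five concentrations, linear interpolation of endpoints. GI50 = concentration required for 50% inhibition of growth. Definition used: TGI = concentration required for complete inhibition of growth.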

What was measured:
Assay in all cases: NCI tumour cell line growth inhibition, 48 h
HL-60(TB) leukemia = system: HL-60(TB) leukemia
TK-10 renal = system: TK-10 renal
SK-OV-3 ovarian = system: SK-OV-3 ovarian
CAKI-1 renal = system: CAKI-1 renal
SNB-75 CNS = system: SNB-75 CNS
HOP-62 NSCLC = system: HOP-62 NSCLC
IGROV1 ovarian = system: IGROV1 ovarian
K-562 leukemia = system: K-562 leukemia
ACHN renal = system: ACHN renal
OVCAR-3 ovarian = system: OVCAR-3 ovarian

SMILES | TGI (HL-60(TB) leukemia) | TGI (TK-10 renal) | TGI (SK-OV-3 ovarian) | TGI (CAKI-1 renal) | TGI (SNB-75 CNS) | TGI (HOP-62 NSCLC) | TGI (IGROV1 ovarian) | TGI (K-562 leukemia) | TGI (ACHN renal) | TGI (OVCAR-3 ovarian) | GI50 (HL-60(TB) leukemia) [µM] | GI50 (TK-10 renal) [µM] | GI50 (SK-OV-3 ovarian) | GI50 (CAKI-1 renal) | GI50 (SNB-75 CNS) | GI50 (HOP-62 NSCLC) | GI50 (IGROV1 ovarian) | GI50 (K-562 leukemia) [µM] | GI50 (ACHN renal) [µM] | GI50 (OVCAR-3 ovarian)
O=C(O)c1cccc(F)c1C(=O)c1ccc2ccccc2c1 | > 100 µM | > 100 µM | > 100 µM | > 100 µM | > 100 µM | > 100 µM | > 100 µM | > 100 µM | > 100 µM | > 100 µM |  |  |  |  |  |  |  |  |  | 
N[C@@H](Cc1ccc(N(CCCl)CCCl)cc1)C(=O)O | 11.6 µM and 33 µM | > 100 µM and 175 µM | > 100 µM and 35.6 µM and 85.9 µM | 8.9 µM and 25.4 µM and 67.6 µM | 95.9 µM and > 51.6 µM and 123 µM |  | 74.3 µM and 57.1 µM and 139 µM | 190 µM | 21.5 µM and 78.2 µM | 55.3 µM and 26.3 µM and 105 µM | 6.96 | 75.3 | 19.3 µM and 13.9 µM | 2.21 µM and 3.86 µM | 16.3 µM and 14.4 µM | 28.7 µM and 4.34 µM | 15.2 µM and 20.3 µM and 48.6 µM | 37.8 | 3.99 | 22.5 µM and 10.4 µM
COc1ccc2nc3c(cc2c1)C(=O)CC(C(F)(F)F)C3 (stereo unspecified) | > 46.8 µM | > 100 µM | > 100 µM | > 100 µM | > 100 µM | > 100 µM | > 100 µM | > 100 µM | > 100 µM | 6.89 µM | 0.333 | > 84.1 | 4.23 µM | 0.639 µM | 1.04 µM | 3.36 µM | 0.792 µM | 0.406 | 1.02 | 1.65 µM
Cc1nc(N(C)C)nc(-c2cccc(-c3ccn(CCN(C)C)n3)c2)c1C | > 20 µM | > 20 µM | > 20 µM | > 20 µM | > 20 µM | > 20 µM | > 20 µM | > 20 µM | > 20 µM | > 20 µM | > 20 | > 20 | > 20 µM | 19.5 µM | 4.04 µM | > 20 µM | > 20 µM | > 20 | > 20 | > 20 µM
CCN(CC)CCCNc1c2cc(OC)ccc2nc2cccc([N+](=O)[O-])c12 | 0.511 µM | 0.569 µM | 0.789 µM | 0.673 µM | 0.354 µM | 0.412 µM | 0.387 µM | 0.104 µM | 0.306 µM | 0.176 µM |  |  |  |  |  |  |  |  |  | 
COc1cc(Nc2nccc(-c3cnn4ncccc34)n2)cc(OC)c1 | 0.12 µM | 0.406 µM | 9.84 µM | 4.02 µM | 0.308 µM | 0.651 µM | > 23.9 µM | > 25 µM | 4.16 µM | 0.822 µM | 0.0362 | 0.0982 | 0.418 µM | 0.0703 µM | 0.0754 µM | 0.0868 µM | 0.0916 µM | 0.115 | 0.0565 | 0.0509 µM
COc1nc(C(Cl)(Cl)Cl)c(Cl)c(OC)c1Cl | > 60.3 µM and 71.8 µM | 94.5 µM | 26.9 µM | > 72.9 µM and 74.6 µM | 55.6 µM | > 62.8 µM and 22.5 µM | 89.8 µM | > 63.4 µM and 94.2 µM | > 54.1 µM and 73.5 µM | > 61.1 µM and 72.6 µM | > 41.9 | > 91.6 | > 64.2 µM | > 46 µM |  | > 43.2 µM | > 58.5 µM | > 42.6 |  | > 43.4 µM
CCCCCCOc1ccc(/C=N/Nc2cc(C)nc3ccc(Br)cc23)cc1 | 3.26 µM | 3.36 µM | 3.07 µM | 3.04 µM | 3.46 µM | 2.94 µM | 3.45 µM | 2.96 µM | 3.11 µM | 3.65 µM | 1.29 | 1.93 | 1.66 µM | 1.66 µM | 1.84 µM | 1.47 µM | 1.75 µM | 1.07 | 1.74 | 1.94 µM
CCCCCCCCCCCC(=O)[O][Sn]([CH2]CCC)([CH2]CCC)[CH2]CCC | 0.155 µM | 0.0677 µM | 0.193 µM | 0.216 µM | 0.113 µM | 0.232 µM | 0.175 µM | 0.286 µM | 0.157 µM | 0.125 µM | 0.0567 | 0.0271 | 0.0617 µM | 0.0965 µM | 0.0282 µM | 0.0795 µM | 0.0547 µM | 0.0364 | 0.0596 | 0.0518 µM
COc1cccc(/C=N/[N-]C(N)=O)c1[O-].[Cu+2].c1ccncc1 | 55.1 µM |  | 49.7 µM | 31.1 µM | 33.4 µM | 52.1 µM | 49.9 µM | 58.5 µM | > 100 µM | 28.8 µM | 26.5 |  |  |  |  |  |  |  |  | 
O=P1(NCCCl)OCCC(OO)N1CCCl (stereo unspecified) | > 51.9 µM | 39.8 µM | > 100 µM | 35.9 µM | 97 µM | > 100 µM | > 100 µM | > 64 µM | 33 µM | 53 µM |  |  |  |  |  |  |  |  |  | 
Cn1c(=O)ccc2cc(C(=O)c3ccccc3)ccc21 | > 100 µM | > 100 µM | > 100 µM | > 100 µM | 54.3 µM | > 100 µM | > 100 µM | > 100 µM | > 100 µM | > 100 µM |  |  |  |  |  |  |  |  |  | 
NC1=C(O)/C(=N/NS(=O)(=O)c2ccccc2)C(c2cccc(Cl)c2)O1 (stereo unspecified) | 12.5 µM | > 95.8 µM | > 100 µM | > 58.4 µM | > 80.4 µM | > 100 µM | > 100 µM | 27.9 µM | > 84.1 µM | 55.5 µM |  |  |  |  |  |  |  |  |  | 
COc1ccc(/C=C/c2cnnc3ccccc23)cc1OC | > 10 µM | > 10 µM | > 10 µM | > 10 µM | > 10 µM | > 10 µM | > 10 µM | > 10 µM | > 10 µM | > 10 µM |  |  |  |  |  |  |  |  |  | 
CCCCCC(=O)OC[n+]1ccc(-c2c(COC(=O)NC(C)C)c(COC(=O)NC(C)C)c3n2CCC3)cc1 | 96.8 µM | > 100 µM | > 100 µM | > 100 µM | > 100 µM | > 100 µM | > 100 µM | > 100 µM | > 100 µM | > 100 µM |  |  |  |  |  |  |  |  |  | 
CC(=O)SC(C[N+](=O)[O-])c1ccccc1 (stereo unspecified) | 18.9 µM | 23.6 µM | 26.2 µM | 29.3 µM | 7.65 µM | 33 µM | 5.02 µM | 12.8 µM | 8.94 µM | 20.7 µM |  |  |  |  |  |  |  |  |  | 
CN(CC(=O)O)Cc1c[nH]c2ccccc12 | > 100 µM | > 100 µM | > 100 µM | > 100 µM | > 100 µM | > 100 µM | > 100 µM | > 100 µM | > 100 µM | > 100 µM |  |  |  |  |  |  |  |  |  | 
O=c1c2ccc(Br)cc2nc(-c2ccccc2)n1NC1OC(CO)C(O)C(O)C1O (stereo unspecified) | > 100 µM | > 100 µM | > 100 µM | > 100 µM | > 100 µM | > 100 µM | > 100 µM | > 100 µM | > 100 µM | > 100 µM |  |  |  |  |  |  |  |  |  | 
COc1cc(C2C(C(=O)Nc3ccccc3C)=C(C)NC(C)=C2C(=O)Nc2ccccc2C)ccc1O | > 100 µM | > 100 µM | > 100 µM | > 100 µM | > 100 µM | > 100 µM | > 100 µM | > 100 µM | > 100 µM | > 100 µM |  |  |  |  |  |  |  |  |  | 
O=C(/C=C/c1ccco1)c1cccc(Nc2nc(Nc3ccccc3)nc(Nc3ccccc3)n2)c1 | > 54.3 µM | > 100 µM | > 100 µM | > 100 µM | > 69.5 µM | > 100 µM | > 100 µM | > 56.1 µM | > 100 µM | 27.1 µM | > 29.6 | 55.3 | > 86.6 µM | 23.2 µM | 2.16 µM | > 55.4 µM | 2.87 µM |  | 30.5 | 2.83 µM
C/C(=N\O)c1ccc(Nc2cc(-c3ccccc3)nc3c(O)cccc23)cc1 | 96.6 µM | 29.8 µM | 56.1 µM | 35 µM | 31.8 µM | 26.6 µM | 34.6 µM | 97.6 µM | 28.2 µM | 31.7 µM | 0.585 | 12 | 27.4 µM | 10.2 µM | 16.3 µM | 12.9 µM | 17.1 µM | 15.2 | 10.7 | 5.49 µM
Nc1c(S(=O)(=O)O)cc2c(c1Cl)C(=O)c1ccccc1C2=O | > 100 µM | > 100 µM | > 100 µM | > 100 µM | > 100 µM | > 100 µM | > 100 µM | > 100 µM | > 100 µM | > 100 µM | > 100 | > 100 | > 100 µM | > 100 µM | > 100 µM | > 100 µM | > 100 µM | > 100 | > 100 | > 100 µM
CC(=O)NC1C(OCc2ccccc2)OC(COC(=O)CCCCCCCCCCNC(=O)CCNc2ccc([N+](=O)[O-])c3[nH]c4ccc(O)cc4c(=O)c23)C(O)C1OC(C)C(=O)N[C@H](C(=O)N[C@H](CCC(=O)O)C(N)=O)C(C)C (stereo partly specified) | > 100 µM | > 100 µM | > 100 µM | > 100 µM | 64.8 µM | > 100 µM | > 100 µM | > 100 µM | > 100 µM | > 100 µM |  |  |  |  |  |  |  |  |  | 
CC(=O)c1ccc(-c2ccc(C(C)=O)s2)s1 | > 100 µM | > 100 µM | > 100 µM | > 100 µM | > 100 µM | > 100 µM | > 100 µM | > 100 µM | > 100 µM | > 100 µM |  |  |  |  |  |  |  |  |  | 
